Experimental data taken from patent publication US20090326014A1, “Use of 5-ht7 receptor agonists for the treatment of pain” (Laboratorios Del Dr. Esteve, S.A., priority 2006, published 2009).

Tests used:
[1] = molecular target: T1, h5-HT1A (Homo sapiens, UniProt P08908); assay: Radioligand binding assay, h5-HT1A; conditions: h5-HT1A; read-out: Affinity [ki (nM)]
T1 sequence (P08908 1-422): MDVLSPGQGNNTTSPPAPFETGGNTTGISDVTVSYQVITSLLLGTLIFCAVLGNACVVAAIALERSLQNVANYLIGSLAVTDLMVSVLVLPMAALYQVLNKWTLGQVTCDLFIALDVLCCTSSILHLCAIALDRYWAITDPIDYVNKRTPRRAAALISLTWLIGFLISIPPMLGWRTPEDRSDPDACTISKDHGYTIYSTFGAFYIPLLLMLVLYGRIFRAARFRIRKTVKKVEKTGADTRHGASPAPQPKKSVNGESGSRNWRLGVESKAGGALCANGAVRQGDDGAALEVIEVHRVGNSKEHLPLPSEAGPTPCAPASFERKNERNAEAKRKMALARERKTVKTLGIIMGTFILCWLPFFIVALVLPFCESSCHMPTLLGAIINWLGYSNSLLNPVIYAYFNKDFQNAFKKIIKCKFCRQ

[2] = molecular target: h5-HT1B (Homo sapiens, UniProt P28222); assay: Radioligand binding assay, h5-HT1B; conditions: read-out: Affinity [ki (nM)]
[3] = molecular target: h5-HT1D (Homo sapiens, UniProt P28221); assay: Radioligand binding assay, h5-HT1D; conditions: read-out: Affinity [ki (nM)]
[4] = molecular target: h5-HT1E (Homo sapiens, UniProt P28566); assay: Radioligand binding assay, h5-HT1E; conditions: read-out: Affinity [ki (nM)]
[5] = molecular target: T2, h5-HT1F (Homo sapiens, UniProt P30939); assay: Radioligand binding assay, h5-HT1F; conditions: read-out: Affinity [ki (nM)]
T2 sequence (P30939 1-366): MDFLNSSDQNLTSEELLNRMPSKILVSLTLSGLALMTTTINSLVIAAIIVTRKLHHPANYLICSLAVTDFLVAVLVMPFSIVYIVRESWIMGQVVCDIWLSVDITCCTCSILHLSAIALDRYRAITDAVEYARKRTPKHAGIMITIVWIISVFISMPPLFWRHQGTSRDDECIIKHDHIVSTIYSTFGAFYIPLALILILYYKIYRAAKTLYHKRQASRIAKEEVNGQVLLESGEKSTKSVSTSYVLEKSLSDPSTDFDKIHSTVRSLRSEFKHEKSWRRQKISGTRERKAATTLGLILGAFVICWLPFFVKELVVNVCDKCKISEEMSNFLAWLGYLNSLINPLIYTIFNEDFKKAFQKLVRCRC

[6] = molecular target: h5-HT2A (Homo sapiens, UniProt P28223); assay: Radioligand binding assay, h5-HT2A; conditions: read-out: Affinity [ki (nM)]
[7] = molecular target: h5-HT2B (Homo sapiens, UniProt P41595); assay: Radioligand binding assay, h5-HT2B; conditions: h5-HT2B; read-out: Affinity [ki (nM)]
[8] = molecular target: h5-HT2C (Homo sapiens, UniProt P28335); assay: Radioligand binding assay, h5-HT2C; conditions: h5-HT2C; read-out: Affinity [ki (nM)]
[9] = molecular target: h5-HT6 (Homo sapiens, UniProt P50406); assay: Radioligand binding assay, h5-HT6; conditions: h5-HT6; read-out: Affinity [ki (nM)]
[10] = system: capsaicin-induced mechanical allodynia; assay: Capsaicin test, proallodynic protocol (4 ng capsaicin, 0.25 g von Frey filament); format: in vivo, mice; conditions: 0.25 g pressure
Procedure: Alternatively, in some experiments, only 4 ng (instead of 1 μg) of capsaicin were injected into the paw and the pressure exerted by the filament was reduced to 0.25 g (instead of 1 g). […] This approach was used to test the possibility that treatments could exert a proallodynic effect. The FIG. 1 summarizes the two different experimental approaches carried out in this study.

[11] = system: mechanical allodynia induced by partial sciatic nerve ligation; assay: Partial sciatic nerve ligation, von Frey test (mechanical allodynia); format: in vivo, mice
Excerpt: Mechanical allodynia was quantified by measuring the tactile threshold for hind paw withdrawal following von Frey filament stimulation. […] The filament exerted an increasing upward pressure on the plantar surface. The pressure increased linearly with time (0.1 g/s; from 0 to 5 g in 50 s) until the mouse withdrew its paw. […] A cut-off threshold of 5 g (50 s) was imposed.
The filament of 0.4 g was first used. […] This up-down procedure was stopped four measures after the first change in animal responding and the threshold of response was calculated. Clear paw withdrawal, shaking was considered as a nociceptive-like response.

[12] = molecular target: h5-HT7 (Homo sapiens, UniProt P34969); conditions: read-out: Affinity [ki (nM)]
[13] = molecular target: 5-HT7 receptors (Homo sapiens, UniProt P34969); conditions: Mahe et al., 2004; Romero et al., 2006; cited from earlier work
[14] = system: thermal hyperalgesia induced by partial sciatic nerve ligation; assay: Partial sciatic nerve ligation, plantar test (thermal hyperalgesia)
Procedure: Animals were housed in groups of five, provided with food and water ad libitum and kept in controlled laboratory conditions with the temperature maintained at 21±1° C. and light in 12 h cycles (on at 07:00 h and off at 19:00 h). Experiments were carried out in a soundproof and air-regulated experimental room.
The rest of compounds were prepared as aqueous solutions. Doses were calculated based on the molecular weight of the free base. All the compounds and vehicles (1% DMSO or physiological saline) were administered in a volume of 5 ml/kg through the subcutaneous (s.c.) route. When two compounds were co-administered, they were injected s.c. in opposite flanks of the mice.
This model consists of partial injury to the sciatic nerve at mid-thigh level. All surgical procedures for nerve injury were performed under isoflurane (IsoFlo®, Abbott-Laboratorios Dr. Esteve, S. A., Barcelona, Spain) anesthesia (induction: 3%; surgery: 2%). Briefly, mice were anaesthetized and the common sciatic nerve was exposed at the level of the mid-thigh of the right hind paw. Partial nerve injury was produced at about 1 cm proximal to the nerve trifurcation by tying a tight ligature around approximately 33 to 50% the diameter of the sciatic nerve using 9-0 non-absorbable virgin silk suture (Alcon surgical, Texas, USA). Ligature enclosed the outer ⅓-½ sciatic nerve whereas the rest of the nerve (inner ⅔-½) was leaved “uninjured”. The muscle was then stitched with 6-0 silk suture and the skin incision was closed with wound clips. Control, sham-operated mice underwent the same surgical procedure and the sciatic nerve was exposed, but not ligated. After surgery, animals were allowed to recover for 5 days prior to initiation of nociceptive behavioral tests (see experimental protocol below).
The effectiveness of acute treatments with 5-HT7 ligands compared to vehicle on the expression of neuropathic pain was investigated based on the following experimental protocol. […] After the habituation period, pre-injury baseline responses in each test were established during 2 consecutive days. One day after baseline measurements, nerve injury or sham operation was induced as previously described. Mice were then tested in either the von Frey or the plantar test on day 5 after the surgical procedure to monitor post-injury responses. Post-injury baseline responses of mice treated with vehicle were obtained on day 10 (basal pre-treatment). On days 11-13 mice received treatment with three different doses of 5-HT7 ligands following a Latin square design. Finally, on day 14 after surgery, baseline responses in vehicle-treated mice (basal post-treatment) were evaluated as an internal control to ensure that mechanical allodynia and thermal hyperalgesia were not influenced by previous treatments in the Latin square design.

[15] = system: capsaicin-induced mechanical allodynia; assay: Capsaicin test, antiallodynic protocol (1 μg capsaicin, 1 g von Frey filament); conditions: for effect on capsaicin-induced mechanical allodynia: 1 g filament
Procedure: Animals were housed in groups of five, provided with food and water ad libitum and kept in controlled laboratory conditions with the temperature maintained at 21±1° C. and light in 12 h cycles (on at 07:00 h and off at 19:00 h). Experiments were carried out in a soundproof and air-regulated experimental room. The number of mice per group in each individual experiment was 16.
Capsaicin (8-methyl-N-vanillyl 6-nonamide) was dissolved in 1% DMSO (vehicle). […] Doses were calculated based on the molecular weight of the free base. All the compounds and vehicles (1% DMSO or physiological saline) were administered in a volume of 5 ml/kg through the subcutaneous (s.c.) route. When two compounds were co-administered, they were injected s.c. in opposite flanks of the mice.
Subplantar capsaicin injection initially evokes a nocifensive behavior that is characterized by lifting and guarding the injected paw and typically lasts up to 5 min following injection. […] In this study, sensitization by subplantar capsaicin injection was used to assess the effect of several 5-HT7 ligands on mechanical allodynia.
Drug treatments with 5-HT7 ligands were done 30 min before capsaicin injection and withdrawal latencies to a mechanical stimulus were determined 15 min after capsaicin injection (FIG. 1).
Mechanical allodynia was quantified by measuring the hind paw withdrawal response latency to von Frey filament stimulation. Mice were placed into compartment enclosures in a test chamber with a framed metal mesh floor and allowed to acclimate to their environment for 120 min before testing. […] The mechanical stimulus was applied to the plantar surface of the right, capsaicin-injected hind paw from below the mesh floor by using an automated testing device (dynamic plantar aesthesiometer; Ugo Basile, Italy) that lifts a straight filament (0.5 mm diameter). The filament exerted a fixed upward pressure (1 g or 0.25 g) on the plantar surface. When the animal withdrew its hind paw, the mechanical stimulus automatically stopped and the latency time was recorded. Latency was defined as the time from the onset of exposure to the filament to the cessation of the pressure when the sensor detected the withdrawal of the paw. A cut-off latency of 60 sec was imposed. Paw withdrawal latencies were measured in triplicate for each animal.
This approach enabled us to evaluate the possible antiallodynic effect of 5-HT7 ligands.
Data are presented as mean paw withdrawal latency responses in sec±S.E.M. Capsaicin-injected hind paw withdrawal responses to mechanical stimulation of treated mice were compared with those of untreated (vehicle-treated) mice. Statistical analysis to test intergroup comparisons was made using an initial one-way analysis of variance followed by the Newman-Keuls multiple comparison test. The level of significance was set at p<0.05.

[16] = system: sciatic nerve-ligatured rats; assay: Chronic constriction injury of the sciatic nerve (CCI-SN), Randall-Sellito test; conditions: antagonist i.p., 5a-MSD s.c.; sciatic nerve-ligated rats
Procedure: All compounds were prepared as aqueous solutions. […] When two compounds were co-administered, one was injected s.c. and the other i.p.
Briefly, the right common sciatic nerve was exposed at mid-tight level by blunt dissection through the biceps femoris muscle. Proximal to the trifurcation, ≈10 mm of nerve was freed from adhering tissue and four loose ligatures (5.0 chromic catgut) were tied around the sciatic nerve (≈1 mm apart). […] In sham-operated control rats, an identical dissection was performed on the right side allowing the sciatic nerve to be freed from surrounding tissue, but not ligatured. Finally, muscle and skin were closed in layers with silk thread.
Mechanical nociceptive thresholds, expressed as grams (g), were measured using the Randall-Sellito test (Ugo Basile analgesimeter; Bioseb, Chaville, France). An increasing pressure was applied to the nerve-injured hindpaw of unrestrained rats until paw withdrawal (PW) and then a squeak (i.e. the vocalization threshold when the paw was held under pressure) were obtained. As PW is a spinally coordinated reflex whereas vocalization is a supra-spinal integrated response (Kayser and Christensen, 2000), this test allowed assessment of the respective contribution of spinal versus supra-spinal mechanisms.

h5-HT2C, sequence (P28335 33-458): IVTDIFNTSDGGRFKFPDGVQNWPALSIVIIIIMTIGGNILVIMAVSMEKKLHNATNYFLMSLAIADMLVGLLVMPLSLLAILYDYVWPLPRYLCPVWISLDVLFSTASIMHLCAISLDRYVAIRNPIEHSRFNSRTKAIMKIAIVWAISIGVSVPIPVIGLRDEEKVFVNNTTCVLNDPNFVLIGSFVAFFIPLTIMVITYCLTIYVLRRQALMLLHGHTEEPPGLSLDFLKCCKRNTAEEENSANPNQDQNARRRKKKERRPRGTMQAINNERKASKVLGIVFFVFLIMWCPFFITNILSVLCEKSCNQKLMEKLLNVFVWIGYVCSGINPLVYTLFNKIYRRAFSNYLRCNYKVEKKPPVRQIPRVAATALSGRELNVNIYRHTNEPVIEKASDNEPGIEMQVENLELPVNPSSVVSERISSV
h5-HT1E, sequence (P28566 whole entry): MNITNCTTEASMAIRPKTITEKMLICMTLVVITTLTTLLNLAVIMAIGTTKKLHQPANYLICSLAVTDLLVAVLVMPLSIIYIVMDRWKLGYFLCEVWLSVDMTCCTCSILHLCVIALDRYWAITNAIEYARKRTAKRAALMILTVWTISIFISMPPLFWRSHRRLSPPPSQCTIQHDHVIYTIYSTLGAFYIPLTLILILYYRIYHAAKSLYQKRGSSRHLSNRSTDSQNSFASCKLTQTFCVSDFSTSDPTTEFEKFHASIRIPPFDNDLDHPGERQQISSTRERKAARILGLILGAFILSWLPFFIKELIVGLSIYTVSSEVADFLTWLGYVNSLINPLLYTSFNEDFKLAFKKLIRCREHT
h5-HT2A, sequence (P28223 whole entry): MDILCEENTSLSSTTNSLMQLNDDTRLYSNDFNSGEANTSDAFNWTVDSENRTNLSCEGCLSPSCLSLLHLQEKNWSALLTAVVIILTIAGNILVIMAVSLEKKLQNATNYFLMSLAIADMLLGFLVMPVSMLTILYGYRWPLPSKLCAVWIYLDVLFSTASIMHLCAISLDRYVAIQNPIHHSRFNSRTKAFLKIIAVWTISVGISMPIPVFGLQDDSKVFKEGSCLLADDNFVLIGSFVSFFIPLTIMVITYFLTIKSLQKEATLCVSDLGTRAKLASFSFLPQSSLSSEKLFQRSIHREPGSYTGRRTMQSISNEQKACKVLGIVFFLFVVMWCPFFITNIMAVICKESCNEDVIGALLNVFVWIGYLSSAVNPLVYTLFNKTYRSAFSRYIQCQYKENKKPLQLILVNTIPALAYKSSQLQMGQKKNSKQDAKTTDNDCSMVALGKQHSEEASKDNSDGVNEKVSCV
h5-HT2B, sequence (P41595 whole entry): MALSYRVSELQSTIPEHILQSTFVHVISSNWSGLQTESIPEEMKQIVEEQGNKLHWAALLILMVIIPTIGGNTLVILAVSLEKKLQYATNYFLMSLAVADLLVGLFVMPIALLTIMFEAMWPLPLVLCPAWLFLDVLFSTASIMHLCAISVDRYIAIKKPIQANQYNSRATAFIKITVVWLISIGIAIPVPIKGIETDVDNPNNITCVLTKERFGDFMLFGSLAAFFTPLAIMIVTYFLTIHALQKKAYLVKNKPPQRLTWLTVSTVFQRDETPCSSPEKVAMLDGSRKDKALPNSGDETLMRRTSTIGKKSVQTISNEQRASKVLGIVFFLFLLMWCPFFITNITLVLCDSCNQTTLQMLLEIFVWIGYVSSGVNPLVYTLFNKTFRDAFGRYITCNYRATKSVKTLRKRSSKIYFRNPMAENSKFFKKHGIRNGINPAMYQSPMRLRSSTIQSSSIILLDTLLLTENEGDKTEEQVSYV
h5-HT1D, sequence (P28221 whole entry): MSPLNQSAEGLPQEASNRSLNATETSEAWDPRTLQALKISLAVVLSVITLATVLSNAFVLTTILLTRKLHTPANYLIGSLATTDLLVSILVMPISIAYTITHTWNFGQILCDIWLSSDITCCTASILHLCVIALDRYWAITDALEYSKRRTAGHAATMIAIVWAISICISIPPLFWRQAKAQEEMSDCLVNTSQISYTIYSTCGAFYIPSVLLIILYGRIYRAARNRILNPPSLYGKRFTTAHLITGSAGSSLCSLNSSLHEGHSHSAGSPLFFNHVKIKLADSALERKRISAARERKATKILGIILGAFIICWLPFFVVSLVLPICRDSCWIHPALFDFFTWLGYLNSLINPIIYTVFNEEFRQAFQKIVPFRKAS
h5-HT6, sequence (P50406 whole entry): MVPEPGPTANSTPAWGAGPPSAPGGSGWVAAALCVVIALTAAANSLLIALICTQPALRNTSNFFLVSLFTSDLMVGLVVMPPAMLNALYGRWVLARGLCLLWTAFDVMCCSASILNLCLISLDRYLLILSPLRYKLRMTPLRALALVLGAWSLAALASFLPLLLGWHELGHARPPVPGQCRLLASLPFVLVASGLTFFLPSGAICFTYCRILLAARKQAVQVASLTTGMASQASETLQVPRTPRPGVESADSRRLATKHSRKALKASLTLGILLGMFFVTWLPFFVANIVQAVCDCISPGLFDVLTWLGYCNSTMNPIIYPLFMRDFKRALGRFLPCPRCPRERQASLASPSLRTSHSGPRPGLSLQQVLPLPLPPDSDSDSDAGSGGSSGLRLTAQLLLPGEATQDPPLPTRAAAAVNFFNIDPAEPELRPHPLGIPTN
h5-HT1B, sequence (P28222 whole entry): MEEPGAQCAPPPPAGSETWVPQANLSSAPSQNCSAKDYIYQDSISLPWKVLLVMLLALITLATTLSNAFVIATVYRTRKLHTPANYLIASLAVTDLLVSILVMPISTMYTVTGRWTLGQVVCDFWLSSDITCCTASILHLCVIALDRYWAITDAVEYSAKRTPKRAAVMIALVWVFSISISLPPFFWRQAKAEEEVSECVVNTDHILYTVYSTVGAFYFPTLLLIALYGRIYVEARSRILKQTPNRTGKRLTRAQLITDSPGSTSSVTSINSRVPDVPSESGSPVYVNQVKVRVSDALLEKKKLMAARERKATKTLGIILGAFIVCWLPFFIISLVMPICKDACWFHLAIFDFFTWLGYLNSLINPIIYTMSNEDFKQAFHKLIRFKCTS
5-HT7 receptors, sequence (P34969 whole entry): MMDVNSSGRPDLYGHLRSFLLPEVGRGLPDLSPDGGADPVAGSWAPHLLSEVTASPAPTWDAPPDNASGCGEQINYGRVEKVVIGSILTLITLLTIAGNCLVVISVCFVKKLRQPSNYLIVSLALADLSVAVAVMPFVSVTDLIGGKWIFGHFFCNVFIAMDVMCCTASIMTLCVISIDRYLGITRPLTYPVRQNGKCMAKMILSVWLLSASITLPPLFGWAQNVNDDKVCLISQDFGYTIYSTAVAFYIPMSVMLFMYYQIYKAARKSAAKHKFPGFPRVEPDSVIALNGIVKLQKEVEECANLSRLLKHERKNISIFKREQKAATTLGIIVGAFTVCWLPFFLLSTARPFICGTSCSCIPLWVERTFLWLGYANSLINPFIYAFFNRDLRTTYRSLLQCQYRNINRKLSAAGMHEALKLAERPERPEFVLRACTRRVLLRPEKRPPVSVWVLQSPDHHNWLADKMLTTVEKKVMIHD
h5-HT7, sequence (P34969 whole entry): as above

Cc1cccc(S(=O)(=O)N(C)[C@H](C)CCN2CCC(C)CC2)c1 [SB-258719, (R)-3,N-Dimethyl-N-(1-methyl-3-(4-methylpiperidin-1-yl)propyl)benzene sulfonamide]
Ki [1]: > 1000 nM | Ki [2]: > 1000 nM | Ki [3]: > 1000 nM | Ki [4]: > 1000 nM | Ki [5]: > 1000 nM | Ki [6]: > 1000 nM | Ki [7]: > 1000 nM | Ki [8]: > 1000 nM | Ki [9]: > 1000 nM | proallodynic effect (paw withdrawal latency) ([10]; 10 mg/Kg s.c.): allodynia was evidenced | proallodynic effect, dose-response ([10]; s.c.): dose-dependently promoted allodynia | effect alone on mechanical allodynia, nerve-injured mice ([11]; 5 mg/Kg s.c., day 11, single dose design): had no antiallodynic effect | effect on mechanical threshold of the nerve-injured hind paw (proallodynic) ([11]; 10 mg/kg s.c., nerve-injured mice): significantly decreased the mechanical threshold | effect on the antiallodynic effect of AS-19 and MSD-5a when co-administered ([11]; SB-258719 5 mg/Kg, AS-19 5 mg/kg, MSD-5a 10 mg/kg s.c., nerve-injured mice): able to reverse the antiallodynic effect | induction of mechanical allodynia in sham-operated mice ([11]; sham-operated, 10 mg/kg s.c.): able to induce mechanical allodynia | Ki [12]: 31.6 nM | functionality at 5-HT7 receptor as described [13]: pure antagonist | effect on thermal hyperalgesia (paw withdrawal latency) ([14]; 0.1-10 mg/kg s.c.): did not exert any effects | effect on the antihyperalgesic effect of AS-19 when co-administered ([14]; SB-258719 5 mg/Kg + AS-19 5 mg/kg s.c., nerve-injured mice): blocked significantely the antihyperalgesic effects | effect on the antihyperalgesic effect of MSD-5a when co-administered ([14]; SB-258719 5 mg/Kg + MSD-5a 10 mg/kg s.c., nerve-injured mice): had a tendency to revert MSD-5a (10 mg/kg) without significancy | effect on capsaicin-induced mechanical allodynia ([15]; 20 mg/kg s.c.): significantly increased paw withdrawal latencies | effect on capsaicin-induced mechanical allodynia ([15]; 2.5, 5 and 10 mg/kg s.c.): unaffected | effect on the antiallodynic effect of AS-19 when co-administered ([15]; AS-19 at 5 and 10 mg/kg, WAY-100635 0.3 mg/kg or SB-258719 5 mg/kg s.c.): abolished | effect on the antiallodynic effect of MSD-5a when co-administered ([15]; SB-258719 5 mg/kg + MSD-5a 10 mg/kg s.c.): blocked this antiallodynic effect | effect on the antiallodynic effect of AS-19 when co-administered ([15]; SB-258719 2.5 and 5 mg/kg + AS-19 5 mg/kg s.c.): dose-dependently inhibited | effect on 5a-MSD-induced anti-hyperalgesia/anti-allodynia [16]: Blockade
